Assay results taken from PubChem BioAssay AID248 (DTP/NCI, 2004).
Several values for one entry are separate records, joined by “and”; a condition that tells them apart may be missing. Identical values can stand only once. Inconclusive results and toxic doses are left out. Rule as the data show it: active = T/C of 150% or more; inactive = T/C below 125%.

Test system: L1210 leukemia ip in BDF1 mice, survival T/C
Assay: NCI In Vivo Anticancer Drug Screen. Data for tumor model L1210 Leukemia (intraperitoneal) in B6D2F1 (BDF1) mice
Conditions: endpoint: mean survival time, higher = longer survival
How it was run: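 Tumor was transplanted into mice, which were then dosed with test compound or vehicle alone. Survival was recorded for each group, and the treated figure was expressed relative to the control figure.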

[1] = dose: 100.0 mg/kg/injection, schedule: Q01DX001 (ip), vehicle: Klucel (hydroxypropylcellulose) (HPC)
[2] = dose: 200.0 mg/kg/injection, schedule: Q01DX001 (ip), vehicle: Klucel (hydroxypropylcellulose) (HPC)
[3] = dose: 100.0 mg/kg/injection, schedule: Q01DX009 (ip), vehicle: saline with Tween-80
[4] = dose: 100.0 mg/kg/injection, schedule: Q04DX003 (ip), vehicle: saline
[5] = dose: 200.0 mg/kg/injection, schedule: Q01DX009 (ip), vehicle: saline with Tween-80
[6] = dose: 200.0 mg/kg/injection, schedule: Q04DX003 (ip), vehicle: saline
[7] = dose: 400.0 mg/kg/injection, schedule: Q01DX009 (ip), vehicle: saline with Tween-80
[8] = dose: 100.0 mg/kg/injection, schedule: Q04DX003 (ip), vehicle: saline with Tween-80
[9] = dose: 200.0 mg/kg/injection, schedule: Q04DX003 (ip), vehicle: saline with Tween-80
[10] = dose: 400.0 mg/kg/injection, schedule: Q04DX003 (ip), vehicle: saline with Tween-80
[11] = dose: 100.0 mg/kg/injection, schedule: Q04DX003 (ip), vehicle: Klucel (hydroxypropylcellulose) (HPC)
[12] = dose: 200.0 mg/kg/injection, schedule: Q04DX003 (ip), vehicle: Klucel (hydroxypropylcellulose) (HPC)
[13] = dose: 400.0 mg/kg/injection, schedule: Q04DX003 (ip), vehicle: Klucel (hydroxypropylcellulose) (HPC)
[14] = dose: 100.0 mg/kg/injection, schedule: Q04DX002 (ip), vehicle: Klucel (hydroxypropylcellulose) (HPC)
[15] = dose: 200.0 mg/kg/injection, schedule: Q04DX002 (ip), vehicle: Klucel (hydroxypropylcellulose) (HPC)
[16] = dose: 400.0 mg/kg/injection, schedule: Q04DX002 (ip), vehicle: Klucel (hydroxypropylcellulose) (HPC)
[17] = dose: 100.0 mg/kg/injection, schedule: Q01DX001 (ip), vehicle: saline
[18] = dose: 200.0 mg/kg/injection, schedule: Q01DX001 (ip), vehicle: saline
[19] = dose: 400.0 mg/kg/injection, schedule: Q01DX001 (ip), vehicle: saline
[20] = dose: 400.0 mg/kg/injection, schedule: Q01DX001 (ip), vehicle: Klucel (hydroxypropylcellulose) (HPC)

Measured: T/C

Cc1ccc(S(=O)(=O)NNS(=O)(=O)c2ccc(C)cc2)cc1
inactive: [1] 109 % of control | [2] 109 % of control

CNC(=O)OCC1=CC(=O)C(C)=CC1=O
inactive: dose: 1.56 mg/kg/injection, schedule: Q01DX009 (ip), vehicle: gum acacia 96 % of control | dose: 3.12 mg/kg/injection, schedule: Q01DX009 (ip), vehicle: gum acacia 89 % of control | dose: 6.25 mg/kg/injection, schedule: Q01DX009 (ip), vehicle: gum acacia 89 % of control | dose: 12.5 mg/kg/injection, schedule: Q04DX003 (ip), vehicle: gum acacia 95 % of control | dose: 25.0 mg/kg/injection, schedule: Q04DX003 (ip), vehicle: gum acacia 103 % of control

CC1CN=C(c2ccc(NC(=O)NCCCCCCCCCNC(=O)Nc3ccc(C4=NCC(C)N4)cc3)cc2)N1 (configuration not stated)
inactive: dose: 6.5 mg/kg/injection, schedule: Q01DX Z (ip), vehicle: carboxymethylcellulose (CMC) 86 % of control | dose: 13.0 mg/kg/injection, schedule: Q01DX Z (ip), vehicle: carboxymethylcellulose (CMC) 100 % of control | dose: 26.0 mg/kg/injection, schedule: Q01DX Z (ip), vehicle: carboxymethylcellulose (CMC) 106 % of control | dose: 52.0 mg/kg/injection, schedule: Q01DX Z (ip), vehicle: carboxymethylcellulose (CMC) 107 % of control

C1CCCC(=NN=C2CCCCCCC2)CCC1
inactive: [3] 89 % of control | [4] 95 % of control | [5] 93 % of control | [6] 89 % of control | [7] 89 % of control | dose: 400.0 mg/kg/injection, schedule: Q04DX003 (ip), vehicle: saline 95 % of control

CNc1ncnc2nn(C)c(C#N)c12
inactive: dose: 50.0 mg/kg/injection, schedule: Q04DX002 (ip), vehicle: saline 106 % of control | dose: 100.0 mg/kg/injection, schedule: Q04DX002 (ip), vehicle: saline 95 % of control | dose: 200.0 mg/kg/injection, schedule: Q04DX002 (ip), vehicle: saline 103 % of control

Cc1ccc2[nH]c(-c3ccccc3)c(-c3ccccc3)c2c1
inactive: [3] 95 % of control | [5] 103 % of control | [7] 95 % of control

CC(C=O)CC1CCCCC1 (configuration not stated)
inactive: [3] 97 % of control | [8] 95 % of control | [5] 95 % of control | [9] 97 % of control | [7] 95 % of control | [10] 95 % of control

CNC(=O)/C(=C\c1ccccc1)NC(C)=O
inactive: dose: 100.0 mg/kg/injection, schedule: Q01DX001 (ip), vehicle: saline with Tween-80 91 % of control | dose: 200.0 mg/kg/injection, schedule: Q01DX001 (ip), vehicle: saline with Tween-80 107 % of control | dose: 400.0 mg/kg/injection, schedule: Q01DX001 (ip), vehicle: saline with Tween-80 100 % of control

CCCCCCCCCCCC(=O)NC(=S)Nc1ccccc1C(F)(F)F
inactive: [11] 104 % of control | [12] 92 % of control | [13] 92 % of control

CC(=O)C(C)(C)O
inactive: [3] 90 % of control | [5] 87 % of control | [7] 92 % of control

COc1ccc(/C=C/c2nccc3ccccc23)cc1OC
inactive: dose: 50.0 mg/kg/injection, schedule: Q04DX002 (ip), vehicle: Klucel (hydroxypropylcellulose) (HPC) 105 % of control | [14] 102 % of control | [15] 96 % of control and 108 % of control | [16] 89 % of control

CC1=CC(=O)CC(C)C1 (configuration not stated)
inactive: [17] 111 % of control | [18] 94 % of control | [19] 103 % of control

CCN(CC)CC(=O)NCC(CCCCN1CCCC1)(c1cccc2ccccc12)C(C)C (configuration not stated)
inactive: dose: 6.25 mg/kg/injection, schedule: Q04DX003 (ip), vehicle: saline 104 % of control | dose: 12.5 mg/kg/injection, schedule: Q04DX003 (ip), vehicle: saline 110 % of control | dose: 25.0 mg/kg/injection, schedule: Q04DX003 (ip), vehicle: saline 93 % of control

CCCCCCC(C)NCCO (configuration not stated)
inactive: dose: 5.0 mg/kg/injection, schedule: Q01DX001 (ip), vehicle: saline 97 % of control | dose: 10.0 mg/kg/injection, schedule: Q01DX001 (ip), vehicle: saline 106 % of control | dose: 20.0 mg/kg/injection, schedule: Q01DX001 (ip), vehicle: saline 96 % of control | dose: 40.0 mg/kg/injection, schedule: Q01DX001 (ip), vehicle: saline 94 % of control | dose: 80.0 mg/kg/injection, schedule: Q01DX001 (ip), vehicle: saline 100 % of control

CCCCCCCCN(C(=S)NC(=O)c1ccccc1)c1ccccc1
inactive: [11] 93 % of control | [12] 89 % of control | [13] 91 % of control

O=c1[nH]c(=O)n(Cc2ccccc2)cc1Cc1cccc(OCc2ccccc2)c1
inactive: [8] 97 % of control | [9] 96 % of control | [10] 97 % of control

CC(=O)Nc1ncc(Oc2ccc(Cl)cc2Cl)c(=O)[nH]1
inactive: dose: 50.0 mg/kg/injection, schedule: Q01DX001 (ip), vehicle: carboxymethylcellulose (CMC) 102 % of control | dose: 100.0 mg/kg/injection, schedule: Q01DX001 (ip), vehicle: carboxymethylcellulose (CMC) 119 % of control | dose: 200.0 mg/kg/injection, schedule: Q01DX001 (ip), vehicle: carboxymethylcellulose (CMC) 96 % of control | dose: 400.0 mg/kg/injection, schedule: Q01DX001 (ip), vehicle: carboxymethylcellulose (CMC) 102 % of control

CC(C)C(C)/C=C\C(C)C1CCC2C3=CCC4CC(O)CCC4(C)C3CCC21C (configuration not stated)
inactive: [1] 97 % of control | [2] 97 % of control | [20] 97 % of control

[O-][N+](Cc1ccccc1)=Nc1ccccc1
inactive: [1] 100 % of control | [2] 96 % of control | [20] 89 % of control

COc1ccccc1NC(=O)NCc1cccc2ccccc12
inactive: [14] 107 % of control | [15] 104 % of control | [16] 100 % of control

O=C(O)C[P+](c1ccccc1)(c1ccccc1)c1ccccc1
inactive: dose: 50.0 mg/kg/injection, schedule: Q01DX001 (ip), vehicle: saline 106 % of control | [17] 112 % of control

COc1cccc2c1C13CC(C)CC(C2)C1CCC(=O)N3 (configuration not stated)
inactive: [11] 100 % of control | [12] 93 % of control | [13] 102 % of control

Cc1ccc2c(ccc3ccccc32)n1
inactive: [11] 97 % of control | [12] 90 % of control | [13] 90 % of control

COc1ccccc1N=Nc1cc(C)c(C)cc1O
inactive: dose: 50.0 mg/kg/injection, schedule: Q01DX009 (ip), vehicle: saline with Tween-80 106 % of control | [3] 103 % of control | [5] 95 % of control

Cc1ccc(/C=N/NC(=O)c2ccccc2NC(=O)c2ccccc2)cc1
inactive: dose: 100.0 mg/kg/injection, schedule: Q01DX009 (ip), vehicle: Klucel (hydroxypropylcellulose) (HPC) 105 % of control | dose: 200.0 mg/kg/injection, schedule: Q01DX009 (ip), vehicle: Klucel (hydroxypropylcellulose) (HPC) 97 % of control | dose: 400.0 mg/kg/injection, schedule: Q01DX009 (ip), vehicle: Klucel (hydroxypropylcellulose) (HPC) 95 % of control

CC(C)Nc1nc(N)nc2nc(-c3ccc(Cl)cc3)c(-c3ccc(Cl)cc3)nc12
inactive: [17] 100 % of control | [18] 113 % of control | [19] 107 % of control

C1=CC2C1C1(Cc3ccccc3)N=NC2(Cc2ccccc2)C2C=CC21 (configuration not stated)
inactive: [14] 97 % of control | [15] 94 % of control | [16] 87 % of control

O=C(Nc1ccccc1)C(Br)c1ccccc1 (configuration not stated)
inactive: [4] 91 % of control | [6] 90 % of control

N#CCCN(C(=O)Nc1ccccc1)C1CCCCC1
inactive: dose: 100.0 mg/kg/injection, schedule: Q01DX Z (ip), vehicle: methylcellulose (MC) 101 % of control | dose: 200.0 mg/kg/injection, schedule: Q01DX Z (ip), vehicle: methylcellulose (MC) 89 % of control

CN(C)c1ccc2c(c1)N=Nc1cc(N(C)C)ccc1C2
inactive: [1] 87 % of control | [2] 91 % of control | [20] 87 % of control

c1ccc2nc(N3CCCCC3)c(N3CCCCC3)nc2c1
inactive: dose: 222.0 mg/kg/injection, schedule: Q01DX Z (ip), vehicle: methylcellulose (MC) 108 % of control | dose: 333.0 mg/kg/injection, schedule: Q01DX Z (ip), vehicle: methylcellulose (MC) 96 % of control | dose: 500.0 mg/kg/injection, schedule: Q01DX Z (ip), vehicle: methylcellulose (MC) 92 % of control
